According to publication PMC12439480, “Dimeric CCK2R radiotheranostic tracers synergize with mTOR inhibition for enhanced tumor therapy” (Theranostics, 2025):
Like-named read-outs stand apart in the source and are kept apart here. Numbered stars: 1 amine (or outer) side, 2 acyl side, 3 side chain; on linkers, the order of the positions; unused ones are H or OH. Square brackets hold non-standard residues; d marks the D form. Side chains are listed from the residue outwards. Peptide text beside a SMILES is read from it. * marks the point of attachment. DOTA = O=C(O)CN1CCN(CC(=O)O)CCN(CC(=O)*)CCN(CC(=O)O)CC1; d(γGlu) = O=C(O)[C@@H](CCC(=O)[*:2])N[*:1]; 1Nal = N[C@@H](Cc1cccc2ccccc12)C(=O)O; NMeNle = CCCC[C@H](NC)C(=O)O; PEG4 = NCCOCCOCCOCCOCCC(=O)O

Experiment: Ex vivo biodistribution of 177Lu-labeled compound
Parameters: species or system BALB/c nude mice
Conditions: mouse, in vivo; for tissue to tissue ratio at 24 h / tissue to tissue ratio at 48 h / tissue to tissue ratio at 72 h / tissue to tissue ratio at 96 h / tissue to tissue ratio at 1 h / tissue to tissue ratio at 4 h: female, BALB/c nude, iv, total radioactivity
Method: To evaluate the biodistribution of [^177Lu]Lu-DOTA-CCK2R-dimer, AR42J tumor-bearing mice received intravenous (i.v.) injections of 3.7 MBq (≈ 120 pmol) of [^177Lu]Lu-DOTA-CCK2R-dimer (dissolved in 200 μL of saline; n = 3/group), and Mice were sacrificed at 1, 4, 24, 48, 72, and 96 h post-injection. The tissues of interest were excised, weighed, and analyzed for radioactivity using a γ-counter.
All animal studies were approved by the Ethics Committee of Fudan University Shanghai Cancer Center (No. FUSCC-IACUC- S2023- 0003). Five-week-old female BALB/c nude mice were purchased from Shanghai SLAC Laboratory Animal
Company. To establish cell-derived xenograft (CDX) models, 1 × 10⁶ AR42J cells (100 μL) were subcutaneously inoculated into the right shoulder of each mouse. […]
Radioactivity levels were measured using a gamma counter, with decay correction applied based on the injection time. The percentage of injected dose per gram of tissue (%ID/g) was calculated for each time point. […]

[1] = 3.7 MBq, Tumor-to-Bladder ratio (T/B)
[2] = 3.7 MBq, Tumor-to-Blood ratio (T/B)
[3] = 3.7 MBq, Tumor-to-Bone ratio (T/B)
[4] = 3.7 MBq, Tumor-to-Brain ratio (T/B)
[5] = 3.7 MBq, Tumor-to-Heart ratio (T/B)
[6] = 3.7 MBq, Tumor-to-Liver ratio (T/B)
[7] = 3.7 MBq, Tumor-to-Muscle ratio (T/M)
[8] = 3.7 MBq, Tumor-to-Stomach ratio (T/B)
[9] = Tumor-to-Large intestine ratio (T/B)
[10] = Tumor-to-Small intestine ratio (T/B)

`CCCC[C@@H](C(=O)N[C@@H](CC(=O)O)C(=O)N[C@@H](Cc1cccc2ccccc12)C(N)=O)N(C)C(=O)[C@H](Cc1c[nH]c2ccccc12)NC(=O)CCOCCOCCOCCOCCNC(=O)CC[C@@H](NC(=O)CC[C@H](NC(=O)CN1CCN(CC(=O)O)CCN(CC(=O)O)CCN(CC(=O)O)CC1)C(=O)N[C@H](CCC(=O)NCCOCCOCCOCCOCCC(=O)N[C@@H](Cc1c[nH]c2ccccc12)C(=O)N(C)[C@@H](CCCC)C(=O)N[C@@H](CC(=O)O)C(=O)N[C@@H](Cc1cccc2ccccc12)C(N)=O)C(=O)O)C(=O)O` [[177Lu]Lu-DOTA-CCK2R-dimer, metal not drawn] ({DOTA}-E([d(γGlu)-PEG4-Trp-NMeNle-Asp-1Nal-NH2])[d(γGlu)][PEG4]W[NMeNle]D[1Nal]-NH2) gave a tissue to tissue ratio at 24 h [1] of 35.4 ± 6.48, a tissue to tissue ratio at 48 h [1] of 194 ± 91 and a tissue to tissue ratio at 72 h [1] of 44.7 ± 13.1. The tissue to tissue ratio at 96 h [1] was 13.5 ± 4.12, the tissue to tissue ratio at 1 h [2] was 2.95 ± 1.5 and the tissue to tissue ratio at 4 h [2] was 13.3 ± 5.68. The tissue to tissue ratio at 24 h [2] was 141 ± 51.3, the tissue to tissue ratio at 48 h [2] was 186 ± 14.3 and the tissue to tissue ratio at 72 h [2] was 768 ± 140. It also gave a tissue to tissue ratio at 96 h [2] of 226 ± 40.9, a tissue to tissue ratio at 1 h [3] of 35.1 ± 13.6 and a tissue to tissue ratio at 4 h [3] of 53.2 ± 32.6. The tissue to tissue ratio at 24 h [3] was 165 ± 45, the tissue to tissue ratio at 48 h [3] was 1070 ± 247 and the tissue to tissue ratio at 72 h [3] was 117 ± 40.1. It also gave a tissue to tissue ratio at 96 h [3] of 46 ± 9.49, a tissue to tissue ratio at 1 h [4] of 141 ± 50 and a tissue to tissue ratio at 4 h [4] of 470 ± 81.1. For the same molecule, the tissue to tissue ratio at 24 h [4] was 6080 ± 100, the tissue to tissue ratio at 48 h [4] was 1710 ± 151 and the tissue to tissue ratio at 72 h [4] was 746 ± 85.1. It also gave a tissue to tissue ratio at 96 h [4] of 189 ± 50.1, a tissue to tissue ratio at 1 h [5] of 15.3 ± 5.59 and a tissue to tissue ratio at 96 h [5] of 105 ± 5.19. It also gave a tissue to tissue ratio at 1 h [6] of 5.19 ± 2.8, a tissue to tissue ratio at 4 h [6] of 4.37 ± 0.9 and a tissue to tissue ratio at 24 h [6] of 10 ± 0.99. For the same molecule, the tissue to tissue ratio at 48 h [6] was 7.78 ± 1.96, the tissue to tissue ratio at 1 h [7] was 53.3 ± 18.2 and the tissue to tissue ratio at 4 h [7] was 246 ± 180. It also gave a tissue to tissue ratio at 24 h [7] of 417 ± 210, a tissue to tissue ratio at 48 h [7] of 531 ± 153 and a tissue to tissue ratio at 72 h [7] of 348 ± 238. For the same molecule, the tissue to tissue ratio at 96 h [7] was 90.8 ± 32.8, the tissue to tissue ratio at 1 h [8] was 4.83 ± 1.46 and the tissue to tissue ratio at 96 h [8] was 13.4 ± 6.42. The tissue to tissue ratio at 1 h (3.7 MBq, 1 h p.i., read-out: Tumor-to-Kidney ratio (T/B)) was 2.22 ± 1.01, the tissue to tissue ratio at 48 h (3.7 MBq, 48 h p.i., read-out: Tumor-to-Kidney ratio (T/B)) was 4.16 ± 3.43 and the tissue to tissue ratio at 1 h (Tumor-to-Bladder ratio (T/B)) was 24.8 ± 11. The tissue to tissue ratio at 4 h (Tumor-to-Bladder ratio (T/B)) was 40.4 ± 12.1, the tissue to tissue ratio at 4 h (Tumor-to-Heart ratio (T/B)) was 29.6 ± 12.8 and the tissue to tissue ratio at 24 h (Tumor-to-Heart ratio (T/B)) was 134 ± 59.9. It also gave a tissue to tissue ratio at 48 h (Tumor-to-Heart ratio (T/B)) of 406 ± 29.2, a tissue to tissue ratio at 72 h (Tumor-to-Heart ratio (T/B)) of 80.5 ± 26.4 and a tissue to tissue ratio at 1 h [9] of 17.1 ± 5.58. It also gave a tissue to tissue ratio at 4 h [9] of 24.4 ± 5.51, a tissue to tissue ratio at 24 h [9] of 90.7 ± 23.4 and a tissue to tissue ratio at 48 h [9] of 73.2 ± 14.5. The tissue to tissue ratio at 72 h [9] was 98.9 ± 74.4, the tissue to tissue ratio at 96 h [9] was 26.3 ± 11 and the tissue to tissue ratio at 72 h (Tumor-to-Liver ratio (T/B)) was 5.53 ± 1.05. The tissue to tissue ratio at 96 h (Tumor-to-Liver ratio (T/B)) was 2.7 ± 0.63, the tissue to tissue ratio at 1 h (Tumor-to-Lung ratio (T/B)) was 7.93 ± 3.29 and the tissue to tissue ratio at 4 h (Tumor-to-Lung ratio (T/B)) was 15.9 ± 6.64. It also gave a tissue to tissue ratio at 24 h (Tumor-to-Lung ratio (T/B)) of 331 ± 35, a tissue to tissue ratio at 48 h (Tumor-to-Lung ratio (T/B)) of 900 ± 88 and a tissue to tissue ratio at 72 h (Tumor-to-Lung ratio (T/B)) of 299 ± 66.5. For the same molecule, the tissue to tissue ratio at 96 h (Tumor-to-Lung ratio (T/B)) was 61.2 ± 12.8, the tissue to tissue ratio at 1 h [10] was 14 ± 5.39 and the tissue to tissue ratio at 4 h [10] was 28.8 ± 10.3. It also gave a tissue to tissue ratio at 24 h [10] of 229 ± 10, a tissue to tissue ratio at 48 h [10] of 112 ± 61 and a tissue to tissue ratio at 72 h [10] of 187 ± 27.7. For the same molecule, the tissue to tissue ratio at 96 h [10] was 39.6 ± 12.2, the tissue to tissue ratio at 1 h (Tumor-to-Spleen ratio (T/B)) was 8.21 ± 4.18 and the tissue to tissue ratio at 4 h (Tumor-to-Spleen ratio (T/B)) was 6.59 ± 0.75. The tissue to tissue ratio at 24 h (Tumor-to-Spleen ratio (T/B)) was 55 ± 21.1, the tissue to tissue ratio at 48 h (Tumor-to-Spleen ratio (T/B)) was 124 ± 50 and the tissue to tissue ratio at 72 h (Tumor-to-Spleen ratio (T/B)) was 51.8 ± 19.5. The tissue to tissue ratio at 96 h (Tumor-to-Spleen ratio (T/B)) was 9.63 ± 3.59, the tissue to tissue ratio at 4 h (Tumor-to-Stomach ratio (T/B)) was 5.05 ± 1.72 and the tissue to tissue ratio at 24 h (Tumor-to-Stomach ratio (T/B)) was 5.94 ± 1.92. For the same molecule, the tissue to tissue ratio at 48 h (Tumor-to-Stomach ratio (T/B)) was 4.15 ± 0.31, the tissue to tissue ratio at 72 h (Tumor-to-Stomach ratio (T/B)) was 8.41 ± 1.18 and the tissue to tissue ratio at 4 h (4 h p.i., read-out: Tumor-to-Kidney ratio (T/B)) was 2.19 ± 0.23. For the same molecule, the tissue to tissue ratio at 24 h (24 h p.i., read-out: Tumor-to-Kidney ratio (T/B)) was 1.84 ± 0.56, the tissue to tissue ratio at 72 h (72 h p.i., read-out: Tumor-to-Kidney ratio (T/B)) was 1.65 ± 0.05 and the tissue to tissue ratio at 96 h (96 h p.i., read-out: Tumor-to-Kidney ratio (T/B)) was 1.37 ± 0.84. It also gave a tissue uptake at 1 h (Bladder uptake) of 0.84 ± 0.31 %ID/g, a tissue uptake at 4 h (Bladder uptake) of 0.4 ± 0.13 %ID/g and a tissue uptake at 24 h (Bladder uptake) of 0.18 ± 0.04 %ID/g.
